Experimental data reported in patent US10730883B2 (AbbVie Inc., priority 2015, dated 2020).
Entries after “also recorded” stand apart in the source; their conditions may differ. Counter-ions that a name gives are not always drawn. Blank lines part the entries; values can stand above or below the molecule they belong to.

Tests used:
[1] = Hygroscopicity / moisture sorption isotherm of solid state forms; format: physicochemical; details: for hygroscopicity: general statement on the solid state form
From the text: FIG. 6A is a moisture sorption isotherm corresponding to the Amorphous Freebase (via dehydration).
FIG. 6C is a moisture sorption isotherm corresponding to the Tartrate Hydrate.
FIG. 6D is a moisture sorption isotherm corresponding to the Freebase Anhydrate Form D.
In one embodiment, the Tartrate Hydrate has a moisture sorption isotherm profile showing a weight gain of about 1% to about 2% when relative humidity is increased from about 10% relative humidity to about 90% relative humidity at a temperature of 25° C.

[2] = Moisture sorption isotherm; format: physicochemical
Procedure: Moisture vapor isotherm data were collected with a DVS Advantage (Surface Measurement Systems Ltd, Alperton, United Kingdom). The sample powder (5 mg to 20 mg) was loaded on a tared pan of the DVS Advantage. The moisture sorption isotherm data were collected from 30-0-90-0-30% relative humidity in 10% relative humidity intervals. For each step, the dm/dt criteria was 0.001% over 5 minutes, a minimum dm/dt time of 30 minutes, and a maximum dm/dt of 120 minutes. Data was collected isothermally at 25° C. with a nitrogen flow rate of 200 cm^3/minute. The post DVS sample was kept at approximately 30% relative humidity before PXRD analysis.

[3] = Physical stability of solid state forms (dehydration, desolvation, conversion); format: physicochemical; details: for conversion upon drying: drying / ambient drying; for physical stability: general statement on the solid state form
Procedure: The Tartrate Hydrate dehydrated into Amorphous at low relative humidity and high temperature, e.g., <10% RH at 25° C. Shearing and compression potentially cause conversion to the amorphous tartrate, and therefore it is not suitable for compressing into tablet form. Additionally, the filter cake solidified during drying, resulting in the need for additional controls during drying.
In addition, Freebase Hydrate Form C can be grown into different particle sizes.
Freebase Anhydrate Form D can be manufactured only when the water content of the crystallization solvent is low, and will convert to Freebase Hydrate Form C in solutions at high water content. The manufacture of Freebase Anhydrate Form D thus requires strict control of water content. Freebase Anhydrate Form D is slow to crystallize, and difficult to manufacture in higher yield. […] Freebase Hydrate Form C will convert to Freebase Anhydrate Form D in a solution of ethyl acetate with low water content.
The resulting amorphous hydrochloride is hygroscopic. Yields obtained for each of the crystalline hydrochlorides generally have been in the 10% to 15% range.

[4] = Stability of isolated solid form at ambient conditions; format: physicochemical; details: after isolation
[5] = Chemical stability of solid state forms in closed vials at controlled temperature and relative humidity; format: physicochemical; details: general statement on the solid state form
Procedure: The Amorphous Freebase, however, is hygroscopic and can comprise as much as 12% by weight water at 25° C./90% relative humidity. Environmental controls potentially are required to ensure appropriate control of potency and water content during storage, dispensing, and handling of the Amorphous Freebase.
The Tartrate Hydrate, however, potentially will convert to an amorphous tartrate below 10% relative humidity, when heated, or when compressed or under shear.

Equilibrium solubility = format: physicochemical
[6] = Solid state accelerated stability study; format: physicochemical; details: for chemical stability: solid state accelerated stability study
Procedure: Samples (approximately 1 mg to 2 mg) of the solid state form were weighed into glass vials and tested as described below.

[7] = Pharmacokinetic interaction of Compound 1 and methotrexate (dose-normalized AUC); format: in vivo, human; details: FIG. 35B
[8] = Study 2-Part 2: methotrexate PK alone or with Compound 1 in subjects with RA; format: in vivo; details: human; for CL renal: urine and plasma
isolated Treg cells = isolated Treg cells and rheumatoid arthritis synovial fluid; cited from earlier work

Molecule: CC[C@@H]1CN(C(=O)NCC(F)(F)F)C[C@@H]1c1cnc2cnc3[nH]ccc3n12 [Freebase Anhydrate Form D, (3S,4R)-3-ethyl-4-(3H-imidazo[1,2-a]pyrrolo[2,3-e]pyrazin-8-yl)-N-(2,2,2-trifluoroethyl)pyrrolidine-1-carboxamide]
- water uptake (reversibly hygroscopic) ([1]; 90% RH at 25° C.): up to 1.8%
- hygroscopicity [1]: reversibly hygroscopic
- Moisture sorption (reversibly sorbs up to) ([2]; 90% relative humidity at 25° C.): up to 1.8%

Molecule: CC[C@@H]1CN(C(=O)NCC(F)(F)F)C[C@@H]1c1cnc2cnc3[nH]ccc3n12 [Freebase Hydrate Form B, (3S,4R)-3-ethyl-4-(3H-imidazo[1,2-a]pyrrolo[2,3-e]pyrazin-8-yl)-N-(2,2,2-trifluoroethyl)pyrrolidine-1-carboxamide]
- conversion upon drying [3]: convert to the Amorphous Freebase upon drying
- physical stability [3]: not physically stable
- Stability at ambient conditions [4]: not stable after isolation at ambient conditions and readily dehydrated to the Amorphous Freebase; also recorded: not stable at ambient conditions and readily dehydrates to the Amorphous Freebase

Molecule: CC[C@@H]1CN(C(=O)NCC(F)(F)F)C[C@@H]1c1cnc2cnc3[nH]ccc3n12 [Freebase Hydrate Form C, (3S,4R)-3-ethyl-4-(3H-imidazo[1,2-a]pyrrolo[2,3-e]pyrazin-8-yl)-N-(2,2,2-trifluoroethyl)pyrrolidine-1-carboxamide]
- chemical stability [5]: excellent chemical stability; also recorded: good chemical stability
- hygroscopicity [1]: low hygroscopicity
- temperature up to which no dehydration occurs ([3]; drying): around 110 °C
- physical stability [3]: excellent and good
- stability under mechanical processing ([3]; milling, compression): stable under mechanical processing
- Solubility (Equilibrium solubility; FasSIF (pH 6.5 at 37° C.)): 0.22 mg/mL
- Solubility (Equilibrium solubility; pH 1 at 25° C.): 55.3 mg/mL
- Growth of degradation products ([6]; 80/75 10 days, 50/75 6 weeks, 40/75 and 30/65 24 weeks, 25/60 12 months (Temp ° C./% RH)): no growth of degradation products
- chemical stability [6]: acceptable
- Change in attributes evaluated (description, crystal form, assay, impurities and water content) ([6]; storage conditions of the accelerated stability study): No material change
- hygroscopicity ([2]; moisture sorption isotherm analysis, 25° C.): not hygroscopic

Molecule: CC[C@@H]1CN(C(=O)NCC(F)(F)F)C[C@@H]1c1cnc2cnc3[nH]ccc3n12 [Freebase Solvate Form A, (3S,4R)-3-ethyl-4-(3H-imidazo[1,2-a]pyrrolo[2,3-e]pyrazin-8-yl)-N-(2,2,2-trifluoroethyl)pyrrolidine-1-carboxamide]
- conversion upon drying [3]: convert to the Amorphous Freebase upon drying
- physical stability [3]: not physically stable
- Stability at ambient conditions [4]: not stable after isolation at ambient conditions and readily dehydrated to the Amorphous Freebase

Molecule: CC[C@@H]1CN(C(=O)NCC(F)(F)F)C[C@@H]1c1cnc2cnc3[nH]ccc3n12 [Hydrochloride Solvate Form AA, (3S,4R)-3-ethyl-4-(3H-imidazo[1,2-a]pyrrolo[2,3-e]pyrazin-8-yl)-N-(2,2,2-trifluoroethyl)pyrrolidine-1-carboxamide]
- conversion upon drying [3]: convert to an amorphous hydrochloride upon ambient drying

Molecule: CC[C@@H]1CN(C(=O)NCC(F)(F)F)C[C@@H]1c1cnc2cnc3[nH]ccc3n12 [Hydrochloride Solvate Form BB, (3S,4R)-3-ethyl-4-(3H-imidazo[1,2-a]pyrrolo[2,3-e]pyrazin-8-yl)-N-(2,2,2-trifluoroethyl)pyrrolidine-1-carboxamide]
- conversion upon drying [3]: convert to an amorphous hydrochloride upon ambient drying

Molecule: CC[C@@H]1CN(C(=O)NCC(F)(F)F)C[C@@H]1c1cnc2cnc3[nH]ccc3n12 [Hydrochloride Solvate Form CC, (3S,4R)-3-ethyl-4-(3H-imidazo[1,2-a]pyrrolo[2,3-e]pyrazin-8-yl)-N-(2,2,2-trifluoroethyl)pyrrolidine-1-carboxamide]
- conversion upon drying [3]: convert to an amorphous hydrochloride upon ambient drying

Molecule: CC[C@@H]1CN(C(=O)NCC(F)(F)F)C[C@@H]1c1cnc2cnc3[nH]ccc3n12 [L-Maleate Form AAA, (3S,4R)-3-ethyl-4-(3H-imidazo[1,2-a]pyrrolo[2,3-e]pyrazin-8-yl)-N-(2,2,2-trifluoroethyl)pyrrolidine-1-carboxamide]
- chemical stability [5]: less chemically stable

Molecule: CC[C@@H]1CN(C(=O)NCC(F)(F)F)C[C@@H]1c1cnc2cnc3[nH]ccc3n12 [L-Maleate Form BBB, (3S,4R)-3-ethyl-4-(3H-imidazo[1,2-a]pyrrolo[2,3-e]pyrazin-8-yl)-N-(2,2,2-trifluoroethyl)pyrrolidine-1-carboxamide]
- chemical stability [5]: less chemically stable
- Degradation on storage ([6]; 50° C./75% relative humidity (open and closed glass vials)): degraded to products that were not observed for the Freebase Hydrate Form C or the Tartrate Hydrate
- chemical stability ([6]; listed as L-maleate salt): prone to chemical degradation

- hygroscopicity [1]: hygroscopic
Molecule: CCC1CN(C(=O)NCC(F)(F)F)CC1c1cnc2cnc3[nH]ccc3n12.Cl (stereo not drawn) [amorphous hydrochloride]

- effect of concomitant Compound 1 administration on methotrexate dose-normalized AUC [7]: lack of effect
- Tmax ([8]; plasma, 6 mg, Compound 1 6 mg BID Group, Day 1 (alone)): 2.5 h
- half-life ([8]; plasma, 6 mg, Compound 1 6 mg BID Group, Day 29 (with Compound 1), harmonic mean ± pseudo-SD, read-out: t1/2 (terminal elimination half-life) (converted)): 282 ± 78 min
- Tmax ([8]; plasma, 12 mg, Compound 1 12 mg BID Group, Day 29 (with Compound 1)): 2.5 h
- Tmax ([8]; plasma, 24 mg, Compound 1 24 mg BID Group, Day 1 (alone)): 3 h
- Tmax ([8]; plasma, 24 mg, Compound 1 24 mg BID Group, Day 29 (with Compound 1)): 2.5 h
- CL renal ([8]; 6 mg, Compound 1 6 mg BID Group, Day 1 (alone)): 110 mL/min
- CL renal ([8]; 6 mg, Compound 1 6 mg BID Group, Day 29 (with Compound 1)): 90.5 mL/min
- CL renal ([8]; 12 mg, Compound 1 12 mg BID Group, Day 1 (alone)): 102 mL/min
- CL renal ([8]; 12 mg, Compound 1 12 mg BID Group, Day 29 (with Compound 1)): 79.7 mL/min
- CL renal ([8]; 24 mg, Compound 1 24 mg BID Group, Day 1 (alone)): 124 mL/min
- CL renal ([8]; 24 mg, Compound 1 24 mg BID Group, Day 29 (with Compound 1)): 107 mL/min
- CL renal ([8]; Placebo group, Day 1): 72 mL/min
- CL renal ([8]; Placebo group, Day 29): 96.7 mL/min
Molecule: CN(Cc1cnc2nc(N)nc(N)c2n1)c1ccc(C(=O)N[C@@H](CCC(=O)O)C(=O)O)cc1 [methotrexate]

B1: BT-061: humanized agonistic monoclonal antibody that binds to a unique epitope of human CD4 (antibody, chains of the INN, looked up, V domains shown)
VH: EEQLVESGGGLVKPGGSLRLSCAASGFSFSDCRMYWLRQAPGKGLEWIGVISVKSENYGANYAESVRGRFTISRDDSKNTVYLQMNSLKTEDTAVYYCSASYYRYDVGAWFAYWGQGTLVTVSS
VL: DIVMTQSPDSLAVSLGERATINCRASKSVSTSGYSYIYWYQQKPGQPPKLLIYLASILESGVPDRFSGSGSGTDFTLTISSLQAEDVAVYYCQHSRELPWTFGQGTKVEIK
- CD4+ and CD8+ T effector cell proliferation (isolated Treg cells): suppression
- expression of pro-inflammatory cytokines (isolated Treg cells): reduction
- production of the anti-inflammatory cytokine TGFβ (isolated Treg cells): increase
